# Data as given in patent US6774116B2, “Prodrugs via acylation with cinnamate” (priority 2001, dated 2004).
# Legend:
# Format in all cases: in vivo, nude mice
# [1] = test system: Human colon carcinoma cell line LS-180; test: Treatment of human colon carcinoma LS-180 xenograft with A—Z—CINN 551
# Method: Human colon carcinoma cell line LS-180 is grown in cell culture as described (Kinuya et.al. 2001. J. Nucl. Med. 42:596-600). 1×10^7 cells/mouse are implanted s.c. into nude mice. When the tumors reached 150-200 mm^3 in size, A—Z—CINN 551 is used to treat the tumor as follows; 0.1-1.0 mg of A—Z—CINN 551 (1 mg mAb protein with ˜25 ug paclitaxel covalently attached) is injected i.v. via tail vein into mice with the tumor. After 6 hours, mice that received 0.1, 0.5 or 1.0 mg of A—Z—CINN […] are anesthetized with a Ketamine/Rompun mixture. A 16 G needle is used to create a hole in the skin and a 1 mm fiber optic probe is inserted up to the tumor. The tumor is exposed to white light for 5 minutes with a power of about 0.5 mW/cm^2. […] All mice are kept under “red lights” to prevent unnecessary light exposure and activation of A—Z—CINN 551 for 72 hours post injection, then returned to normal light/dark cycle.
# [2] = test system: Human breast cancer xenographs; test: Treatment of human breast carcinoma xenographs with A—Z—CINN 361
# Method: Human breast cancer xenographs are prepared as described (Burak et.al. 1998. Nucl. Med. Biol. 25:633-637) Xenographs are implanted s.c. into a nude mice. When the tumor reached 150-200 mm^3 in size, A—Z—CINN 361 is used to treat the tumor as follows; 0.1-1.0 mg of A—Z—CINN 361 (1 mg mAb protein with ˜25 ug paclitaxel covalently attached) is injected i.v. via tail vein into mice with the tumor. After 6 hours, mice that receive 0.1, 0.5 or 1.0 mg of A—Z—CINN 361 are anesthetized with a Ketamine/Rompun mixture. A 16G needle is used to create a hole in the skin and a 1 mm fiber optic probe is inserted up to the tumor. The tumor is exposed to white light for 5 minutes with a power of about 0.5 mW/cm^2. […] All mice are kept under “red lights” to prevent unnecessary light exposure and activation of A—Z—CINN 361 for 72 hours post injection, then returned to normal light/dark cycle.
# [3] = test system: Human lung carcinoma cell line H2987; test: Treatment of human lung carcinoma H2987 xenograft with A—Z—CINN 441
# Method: MAb BR110 is a murine mAb to a 66-kDa glycoprotein that is found on the cell surface of human lung, colon and breast tumor cells. Human lung carcinoma cell line H2987 is grown in cell culture as described (U.S. Pat. No. 5,840,854). 1×10^7 cells/mouse are implanted s.c. into a nude mice. When the tumors reached 150-200 mm^3 in size, A—Z—CINN 441 is used to treat the tumor as follows: 0.1-1.0 mg of A—Z—CINN 441 (1 mg mAb protein with ˜25 ug paclitaxel covalently attached) is injected i.v. via tail vein into mice with the tumor. After 6 hours, mice that receive 0.1, 0.5 or 1.0 mg of A—Z—CINN 441 are anesthetized with a Ketamine/Rompun mixture. A 16G needle is used to create a hole in the skin and a 1 mm fiber optic probe is inserted up to the tumor. The tumor is exposed to white light for 5 minutes with a power of about 0.5 mW/cm^2. […] All mice are kept under “red lights” to prevent light activation of the drug, for 72 hours post injection, then returned to normal light/dark cycle. […] Groups that receive antibody and free drug (unlinked) show tumor growth, and by 28 days the mice either die or have tumors>800 mm^3.
# [4] = in 7 days, light treatment 6 hours after i.v. injection, 0.1, 0.5 or 1.0 mg
substance,measurement,setting,value
A7-mAb-S-Mal-PEG3400-N—CINN-paclitaxel [A—Z—CINN 551],tumor shrinkage,[1]; [4],> 50%
same,tumor size by 28 days,[1]; light treatment,less than 50 mm^3
same,tumor size at 28 days,[1]; no light stimulation,smaller than 100 mm^3
NR-LU-10 mAb-S-Mal-PEG3400-N—CINN-paclitaxel [A—Z—CINN 361],tumor shrinkage,[2]; [4],> 50%
same,tumor size by 28 days,[2]; light treatment,less than 50 mm^3
same,tumor size at 28 days,[2]; no light stimulation,smaller than 100 mm^3
BR110-mAb-S-Mal-PEG3400-N—CINN-paclitaxel [A—Z—CINN 441],tumor shrinkage,[3]; [4],> 50%
same,tumors by 28 days,[3]; light treatment,not detectable
same,tumor size at 28 days,[3]; no light stimulation,smaller than 50 mm
